Holding throughout (assay type): cell-based
One test deals with T1, NpwBP (Homo sapiens, UniProt Q9Y2W2).
T1 construct: expressed in transfected cells; host or cells: COS7 (monkey kidney)
T1 sequence (Q9Y2W2 1-641): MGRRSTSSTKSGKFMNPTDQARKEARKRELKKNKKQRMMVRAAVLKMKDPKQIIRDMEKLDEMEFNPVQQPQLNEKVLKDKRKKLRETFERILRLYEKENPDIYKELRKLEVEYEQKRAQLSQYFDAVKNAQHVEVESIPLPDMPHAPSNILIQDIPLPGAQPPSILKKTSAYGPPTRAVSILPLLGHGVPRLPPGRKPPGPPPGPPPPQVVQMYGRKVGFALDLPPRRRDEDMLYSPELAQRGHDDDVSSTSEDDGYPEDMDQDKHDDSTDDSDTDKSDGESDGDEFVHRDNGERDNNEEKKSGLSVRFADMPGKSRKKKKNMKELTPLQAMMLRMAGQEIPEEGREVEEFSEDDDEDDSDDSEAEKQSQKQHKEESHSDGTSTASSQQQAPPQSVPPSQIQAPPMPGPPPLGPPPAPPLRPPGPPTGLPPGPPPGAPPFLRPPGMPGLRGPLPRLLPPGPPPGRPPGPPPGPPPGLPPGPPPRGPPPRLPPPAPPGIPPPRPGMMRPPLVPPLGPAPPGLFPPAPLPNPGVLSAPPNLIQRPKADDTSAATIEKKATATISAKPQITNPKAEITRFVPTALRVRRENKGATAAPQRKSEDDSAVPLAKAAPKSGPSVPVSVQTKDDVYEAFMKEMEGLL
Nature of the test: Contrary system: NpwBP co-expressed with Npw38(ΔC)-GFP in COS7 cells, GFP localization. Here is the method:
(§1) Monkey kidney-derived, cultured cell COS7 was incubated in a 10% fetal calf serum-containing Dulbecco's modified Eagle's medium (DMEM) in the presence of 5% CO2 at 37° C. COS7 cells of 1=10^5 were placed in a 6-well plate (from Nunk, having a well diameter of 3 cm), and further incubated therein in the presence of 5% CO2 at 37° C. for 22 hours. After the medium was removed, the cell sur were washed with a phosphate buffer solution (PBS), and then further washed with a 50 mM Tris-HCl (pH 7.5)-containing DMEM. To these cells, added was a suspension comprising 1 μl of a plasmid suspension, 0.6 ml of DMEM and 3 μl of TRANSFECTAM™ (from IBF), and incubated in the presence of 5% CO2 at 37° C. for 12 hours. Then, the cells were washed with PBS, and fixed with 4% peraformaldehyde-containing PBS at room temperature for 10 minutes. The thus-fixed cells were washed with PBS, then treated with 0.2% Triton X-100, and thereafter blocked with 5% milk PBS. This was reacted with an anti-HA antibody for 45 minutes, then washed with PBS, and reacted with a rhodamine-binding secondary antibody for 45 minutes.
Systems contrary to those in the above (3) were tried.

The target of another test is T2, NpwBP(P2)-Bcl-XL (Homo sapiens, UniProt Q07817+Q9Y2W2).
T2 construct: expressed in transfected cells; host or cells: COS7 (monkey kidney)
Nature of the test: Application of mitochondrial localization signal: co-expression with NpwBP(P2)-Bcl-XL in COS7 cells. The settings on record: mitochondrial region detected with anti-human mitochondrial antibody. Here is the method:
as §1, with “45 minutes. […]” for “45 minutes.”
However, when the fusion protein NpwBP(P2)Bcl-XL was co-expressed therein, the mitochondrial region of each cell also gave the fluorescence (FIG. 4). The mitochondrial region in each cell was detected through immunostaining with an anti-human mitochondrial antibody (Leinco Technologies, Inc.). […]

For another test, the system named is Npw38. Nature of the test: Npw38-NpwBP binding detection by intracellular localization of GFP fluorescence in COS7 cells. As to conditions: co-introduced with Npw38 expression vector, fluorescence microscopy. How it is done:
as §1
Fusion protein HA-Npw38 (A. Komuro et al., J. Biol. Chem., 274: 36513-36519, 1999) was used. This is a fusion protein A-X in which X is Npw38 and A is HA tag. […] Also used were fusion proteins NpwBP(P1)-GFP and NpwBP(P2)-GFP. These are fusion proteins Y-B in which Y is a proline-rich region of NpwBP and B is GFP. In these, P1 contains amino acid residues of from 190th valine to 210th glutamine in SEQ ID NO: 2; and P2 contains amino acid residues of from 401st glutamine to 541st isoleucine in Seq ID NO: 2.
First, pKA1-NpwBP(P1)-GFP or pKA1-NpwBP(P2)-GFP was singly introduced into COS7 cells, and the localization of these fusion proteins in the cells was checked through fluorescence microscopy based on the green fluorescence of GFP as the index thereof. […] In this stage, the cells were immunostained with an antibody against the tag to check the localization of the fusion protein HA-Npw38. This verified the localization of the fusion protein in the nucleus of each cell (FIG. 3c).

T2 sequence (Q9Y2W2+Q07817 fused): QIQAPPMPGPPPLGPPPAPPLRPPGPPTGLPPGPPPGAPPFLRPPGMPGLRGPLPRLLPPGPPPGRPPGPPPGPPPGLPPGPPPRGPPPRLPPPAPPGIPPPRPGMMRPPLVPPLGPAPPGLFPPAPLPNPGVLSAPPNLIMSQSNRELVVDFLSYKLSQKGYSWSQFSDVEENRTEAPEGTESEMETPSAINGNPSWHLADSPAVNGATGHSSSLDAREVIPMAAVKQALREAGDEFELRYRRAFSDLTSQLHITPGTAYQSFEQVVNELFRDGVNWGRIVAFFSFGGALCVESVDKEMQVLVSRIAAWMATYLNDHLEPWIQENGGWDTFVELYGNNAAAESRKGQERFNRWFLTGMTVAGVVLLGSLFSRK

Consider “Npw38(ΔC)-GFP: fusion protein in which the nuclear localization signal in Npw38 was deleted, fused to GFP”, for which, in the test with NpwBP, the “localization of the green fluorescence on co-expression with NpwBP” value is given as “move in the nucleus”. For the same substance, the “localization of the fluorescence on co-expression with NpwBP(P2)-Bcl-XL” value with NpwBP(P2)-Bcl-XL is on record as “localized also in the mitochondrial region”.

In the case of “GFP: green fluorescent protein, expressed in place of NpwBP-GFP as control [reference compound]”, in the test with Npw38, the “localization of the green fluorescence on co-expression with Npw38” value (shortened to “localization … with Npw38”) is “no intranuclear localization”.

“NpwBP(P2)-GFP: fusion protein of proline-rich region P2 of NpwBP (residues 401-541 of SEQ ID NO: 2) and GFP”: the “localization … with Npw38” value in the test on Npw38 was “localized in the nucleus”.

For “NpwBP(P1)-GFP: fusion protein of proline-rich region P1 of NpwBP (residues 190-210 of SEQ ID NO: 2) and GFP”, in the test with Npw38, the “localization … with Npw38” value was “localized in the nucleus”.
